Source: US20100150948A1, “MATERIALS AND METHODS FOR IMPROVED IMMUNOGLYCOPROTEINS” (TRUBION PHARMACEUTICALS, INC., priority 2006, published 2010)

Legend:
BJAB B cells = test: ADCC activity, 51Cr release, PBMC effector cells; assay type: cell-based, human; conditions: for ADCC activity (% specific killing) of TRU-015 purified protein: 0, 2, 5, 10, 30 or 100 μg/mL castanospermine in culture media
Method: To determine the ADCC activity of purified TRU-016, labeled BJAB B cells were used as targets and human peripheral blood mononuclear cells (PBMC) as effector cells. BJAB B cells (10^7 cells) were labeled with 500 μCi/mL ^51Cr sodium chromate for 2 hours at 37° C. in IMDM/10% FBS. PBMCs were isolated from heparinized, human whole blood by fractionation over Lymphocyte Separation Media (LSM, ICN Biomedical) gradients. Reagent samples were added to RPMI media with 10% FBS and serial dilutions of each reagent were prepared. The ^51Cr labeled BJAB were added at 2×10^4 cells/well. The PBMCs were then added at 5×10^5 cells/well for a final ratio of 25:1 effectors (PBMC):targets (BJAB). Reactions were set up in quadruplicate wells of a 96 well plate. Reactions were allowed to proceed for 6 hours at 37° C. in 5% CO2 prior to harvesting and counting. CPM released was measured on a Packard TopCounNXT from 50 μl dried culture supernatant. Percent specific killing was calculated by subtracting (cpm [mean of quadruplicate samples] of sample—cpm spontaneous release)/(cpm maximal release-cpm spontaneous release) x100, and data were plotted as % specific killing versus TRU-016 concentration.

CD37 and FcγRIIIa (CD16) = test: Simultaneous binding of TRU-016 to CD37 and FcγRIIIa (CD16) on Daudi cells; parameters: species or system human; conditions: CS 0-800 μM in culture; response up to 400 μM, at which point the binding appears to level off
Method: TRU-016 produced as described in Example 8 was tested in the following assay, which simultaneously evaluates the ability of the TRU-016 binding domain to bind to a CD37 expressing target cell and the ability of the Fc portion of the TRU-016 SMIP to bind a fusion protein of human CD16 and murine IgG Fc.
The target cell utilized is the Daudi (ATCC CRL-213) cell line. Daudi cells are a human B-lymphoblastoid cell line derived from a Burkitt's lymphoma and express high levels of CD37. The custom soluble CD16:MuIgGFc fusion protein is human CD16 (low affinity polymorphism) linked to a murine IgG Fc.
The appropriate number of Daudi cells (350,000/well times the number of wells) is aliquoted and centrifuged at 250×g for 5 minutes at 15° C. The supernatant is removed. One percent cold paraformaldehyde is prepared by diluting the 4% stock from USB (USB US19943) 1:4 with FACS Buffer. FACS Buffer is prepared by adding 2% FBS (Gibco) to Dulbecco's PBS (Invitrogen) (v/v) and sterile filtering with a 0.22 μm filter. FACS Buffer is stored and used at 4° C. […]
Each sample's bound fluorescence is measured on a BD FACSCalibur flow cytometry system and analyzed with Cell Quest Pro software (Becton Dickinson, ver 5.2). The GeoMean fluorescence intensity for each sample is plotted relative to the TRU-016 concentration. […]

Ramos cells = test: Ramos tumor model in nude mice; assay type: in vivo; conditions: TRU-016 from CHO cells treated with 200 μM DMJ, 10 μM kifenunsine or 200 μM castanospermine; 200 μg i.v.
Method: Nude mice are administered 5×10^6 Ramos cells subcutaneously on day 0 and injected intravenously with 200 μg control human IgG or TRU-016 test protein produced by CHO cells treated with 200 μM DMJ, 10 μM kifenunsine or 200 μM castanospermine on days 0, 2, 4, 6, and 8. Mice typically develop tumors within 6 days and die shortly thereafter. Tumors are measured three times weekly with digital calipers and LabCat software, and tumor volume is calculated as […]. Body weight is also determined once a week.
Mice are sacrificed when the tumor reaches 1500 mm^3 in size (1200 mm^3 on Fridays). Mice are also sacrificed if ulceration of a tumor occurs, the tumor inhibits the mobility of animal, or if weight loss equals or exceeds 20%.

| Molecule | ADCC activity (% specific killing) of TRU-016 purified protein (BJAB B cells; 0, 10, 25, 50, 100 or 200 μM castanospermine in culture media) | ADCC (% specific killing) of TRU-016 purified protein (BJAB B cells; 200 μM DMJ, 10 μM kifenunsine or 200 μM castanospermine in culture media) | ADCC activity (% specific killing) of TRU-015 purified protein (BJAB B cells; PBMC from high affinity (V/V158) CD16 donors) | ADCC activity (% specific killing) of TRU-015 purified protein (BJAB B cells; PBMC from low affinity (F/F158) CD16 donors) | simultaneous binding of TRU-016 to CD37 and CD16 (GeoMean fluorescence, D-parameter) (CD37 and FcγRIIIa (CD16)) | mean survival time (Ramos cells) | tumor volume (Ramos cells) |
| --- | --- | --- | --- | --- | --- | --- | --- |
| O[C@H]1[C@H](O)[C@@H](O)CN2CC[C@H](O)[C@H]12 [castanospermine] | dose-dependent increase | improved ADCC | dose-dependent increase | dose-dependent increase | dose-dependent binding response | – | – |
| TRU-016: recombinant single chain protein (SMIP) that binds CD37; G28-1 binding domain, modified hinge, human IgG1 CH2 and CH3; SEQ ID NO: 2 | – | – | – | – | – | increase mean survival time | reduce tumor volume |
